Where two headings read alike, the source gives them in different places.

Common to all, as to format: cell-based
In test [1] the test system is stable HCV 2a JFH-1 Rluc replicon cells (L31 present in NS5A). Briefly: HCV replicon RLuc reporter assay, genotype 2a JFH-1. The conditions noted are these: Hepatitis C virus. The protocol: (§1) Antiviral potency (EC50) was determined using a Renilla luciferase (RLuc)-based HCV replicon reporter assay. To perform the assay for genotype 1 and 2a JFH-1, stable HCV 1a RLuc replicon cells (harboring a dicistronic genotype 1a H77 replicon that encodes a RLuc reporter), stable HCV 1b RLuc replicon cells (harboring a dicistronic genotype 1b Con1 replicon that encodes a RLuc reporter), or stable HCV 2a JFH-1 Rluc replicon cells (harboring a dicistronic genotype 2a JFH-1 replicon that encodes a RLuc reporter; with L31 present in NS5A) were dispensed into 384-well plates for EC50 assays. To perform the assay for genotype 2a (with M31 present in NS5A) or 2b, NS5A chimeric genotype 2a JFH-1 replicons that encodes a RLuc-Neo reporter and either genotype 2a J6 strain NS5A gene or genotype 2b MD2b-1 strain NS5A gene (both with M31 present) respectively, were either transiently transfected (t) into Huh-Lunet cells or were established as stably replicating replicon cells (s). Either cells were dispensed into 384-well plates for EC50 assays. To perform the assay for genotype 3 and 4, NS5A chimeric genotype 1b Con1 replicons that encodes a Pi-RLuc reporter and either genotype 3a S52 strain NS5A gene or genotype 4a ED43 strain NS5A gene respectively, were transiently transfected (t) into Huh-Lunet cells, which were subsequently dispensed into 384-well plates. Alternatively, stable HCV 3a RLuc replicon cells (s) (harboring a dicistronic genotype 3a S52 replicon that encodes an RLuc reporter), or stable HCV 4a RLuc replicon cells (s) (harboring a dicistronic genotype 4a ED43 replicon that encodes a RLuc reporter) were established in Huh-7-derived cells and dispensed into 384-well plates for EC50 assays. Compounds were dissolved in DMSO at a concentration of 10 mM and diluted in DMSO either manually or using an automated pipeting instrument. Serially 3-fold diluted compounds were either manually mixed with cell culture media and added to the seeded cells or directly added to the cells using an automated instrument. DMSO was used as a negative (solvent; no inhibition) control, and the protease inhibitor ITMN-191 was included at a concentration >100×EC50 as a positive control. 72 hours later, cells were lysed and Renilla luciferase activity quantified as recommended by the manufacturer (Promega-Madison, Wis.). Non-linear regression was performed to calculate EC50 values.

Test [2] deals with stable HCV 3a RLuc replicon cells (genotype 3a S52 replicon). As to the kind of experiment: HCV replicon assay, genotype 3a (stable). To be noted: Hepatitis C virus. The protocol: as §1
A short description of test [3]: HCV replicon assay, genotype 2b (stable). To be noted: Hepatitis C virus, genotype 2a / genotype 2b. The protocol: as §1
On the technique in general: A replicon is a self-replicating genome or part of one, used to study replication in cells.

The subject of test [4] is stable HCV 1b RLuc replicon cells (genotype 1b Con1 replicon). Briefly: HCV replicon RLuc reporter assay, genotype 1b. To be noted: Hepatitis C virus; genotype 1b replicon, 72 hours. As to the method:
as §1

The subject of test [5] is stable HCV 1a RLuc replicon cells (genotype 1a H77 replicon). As to the kind of experiment: HCV replicon RLuc reporter assay, genotype 1a. The conditions noted are these: Hepatitis C virus, genotype 1a replicon. The protocol:
as §1

In test [6] the test system is stable HCV 4a RLuc replicon cells (genotype 4a ED43 replicon). As to the kind of experiment: HCV replicon assay, genotype 4a (stable). The conditions noted are these: Hepatitis C virus. The protocol: as §1
The nature of test [7]: HCV replicon assay, genotype 2a J6 (transient). The conditions noted are these: Hepatitis C virus. As to the method: as §1

For `COC[C@H]1C[C@@H](c2ncc(-c3ccc(-c4ccc(-c5[nH]c([C@@H]6CC[C@H](C)N6C(=O)[C@@H](NC(=O)OC)C(C)C)nc5Cl)cc4)cc3)[nH]2)N(C(=O)[C@@H](NC(=O)OC)C(C)C)C1` [AH, Methyl (S)-1-((2S,4S)-2-(5-(4′-(4-chloro-2-((2S,4S)-1-((R)-2-(methoxycarbonylamino)-3-methylbutanoyl)-5-methylpyrrolidin-2-yl)-1H-imidazol-5-yl)biphenyl-4-yl)-1H-imidazol-2-yl)-4-(methoxymethyl)pyrrolidin-1-yl)-3-methyl-1-oxobutan-2-ylcarbamate], the EC50 was below 0.1 nM in test [1] (read-out: 2a JFH); 0.066 nM in test [1] (read-out: 2a JFH (nM)); 1 to 44 nM in test [2] (read-out: 3a (s)); 36.5 nM in test [2] (read-out: 3a (s) (nM)); 1 to 44 nM in test [3] (2BS, read-out: 2b (s)); 7.3 nM in test [3] (read-out: 2b (s) (nM)). Also, the EC50 in test [4] was 40 pM; in test [5], 37 pM; in test [5] (activity range), below 100 pM; in test [6] (read-out: 4a (s)), below 0.1 nM; in test [6] (read-out: 4a (s) (nM)), 0.02 nM.

On to `COC[C@H]1C[C@@H](c2nc(Cl)c(-c3ccc(-c4ccc(-c5cnc([C@@H]6CC[C@H](C)N6C(=O)[C@@H](NC(=O)OC)C(C)C)[nH]5)cc4)cc3)[nH]2)N(C(=O)[C@@H](NC(=O)OC)C(C)C)C1` [AI, Methyl (S)-1-((2S,4S)-2-(4-chloro-5-(4′-(2-((2S,4S)-1-((R)-2-(methoxycarbonylamino)-3-methylbutanoyl)-5-methylpyrrolidin-2-yl)-1H-imidazol-5-yl)biphenyl-4-yl)-1H-imidazol-2-yl)-4-(methoxymethyl)pyrrolidin-1-yl)-3-methyl-1-oxobutan-2-ylcarbamate], for which the EC50 in test [1] (read-out: 2a JFH) was below 0.1 nM; in test [1] (read-out: 2a JFH (nM)), 0.075 nM; in test [2] (read-out: 3a (s)), 1 to 44 nM; in test [2] (read-out: 3a (s) (nM)) it was 40.8 nM; in test [3] (2BS, read-out: 2b (s)), 1 to 44 nM; in test [3] (read-out: 2b (s) (nM)), 5.08 nM. The EC50 was 28 pM in test [4]; 34 pM in test [5]; below 100 pM in test [5] (activity range); below 0.1 nM in test [6] (read-out: 4a (s)); 0.018 nM in test [6] (read-out: 4a (s) (nM)).

Take `COC[C@H]1C[C@@H](c2nc(Cl)c(-c3ccc(-c4ccc(-c5[nH]c([C@@H]6CC[C@H](C)N6C(=O)[C@@H](NC(=O)OC)C(C)C)nc5Cl)cc4)cc3)[nH]2)N(C(=O)[C@@H](NC(=O)OC)C(C)C)C1` [Example AG, Methyl (S)-1-((2S,4S)-2-(4-chloro-5-(4′-(4-chloro-2-((2S,4S)-1-((R)-2-(methoxycarbonylamino)-3-methylbutanoyl)-5-methylpyrrolidin-2-yl)-1H-imidazol-5-yl)biphenyl-4-yl)-1H-imidazol-2-yl)-4-(methoxymethyl)pyrrolidin-1-yl)-3-methyl-1-oxobutan-2-ylcarbamate]: the EC50 in test [1] (read-out: 2a JFH) was below 0.1 nM; in test [1] (read-out: 2a JFH (nM)) it was 0.05 nM; in test [2] (read-out: 3a (s)), 1 to 44 nM; in test [2] (read-out: 3a (s) (nM)), 17.6 nM; in test [3] (2BS, read-out: 2b (s)), 1 to 44 nM; in test [3] (read-out: 2b (s) (nM)) it was 2.56 nM. The EC50 was 19 pM in test [4]; 22 pM in test [5]; below 100 pM in test [5] (activity range); below 0.1 nM in test [6] (read-out: 4a (s)); 0.011 nM in test [6] (read-out: 4a (s) (nM)).

As for `COC[C@H]1C[C@@H](c2ncc(-c3ccc(-c4ccc(-c5cnc([C@@H]6CC[C@H](C)N6C(=O)[C@@H](NC(=O)OC)C6CCOCC6)[nH]5)cc4)cc3)[nH]2)N(C(=O)[C@@H](NC(=O)OC)C2CCOCC2)C1` [Example AJ, Methyl [(1S)-2-{(2S,5S)-2-[5-(4′-{2-[(2S,4S)-1-[(2S)-2-[(methoxycarbonyl)amino]-2-(tetrahydro-2H-pyran-4-yl)acetyl]-4-(methoxymethyl)pyrrolidin-2-yl]-1H-imidazol-5-yl}biphenyl-4-yl)-1H-imidazol-2-yl]-5-methylpyrrolidin-1-yl}-2-oxo-1-(tetrahydro-2H-pyran-4-yl)ethyl]carbamate], the EC50 in test [7] (read-out: 2a J6 (t)) was 0.1 to 0.999 nM; in test [7] (read-out: 2a J6 (t) (nM)), 0.155 nM; in test [1] (read-out: 2a JFH), below 0.1 nM; in test [1] (read-out: 2a JFH (nM)), 0.079 nM; in test [2] (read-out: 3a (s)), 1 to 44 nM; in test [2] (read-out: 3a (s) (nM)) it was 1.34 nM. The EC50 was 0.1 to 0.999 nM in test [3] (2BS, read-out: 2b (s)); 0.672 nM in test [3] (read-out: 2b (s) (nM)); 384 pM in test [4]; 186 pM in test [5]; 100 to 999 pM in test [5] (activity range); 0.1 to 0.999 nM in test [6] (read-out: 4a (s)). In addition, the EC50 in test [6] (read-out: 4a (s) (nM)) worked out at 0.133 nM.

Regarding `COC[C@H]1C[C@@H](c2ncc(-c3ccc(-c4ccc(-c5cnc([C@@H]6CC[C@H](C)N6C(=O)[C@@H](NC(=O)OC)C6CCOCC6)[nH]5)cc4)cc3)[nH]2)N(C(=O)[C@@H](NC(=O)OC)C(C)C)C1` [Example AL, Methyl {(2S)-1-[(2S,4S)-2-{5-[4′-(2-{(2S,5S)-1-[(2S)-2-[(methoxycarbonyl)amino]-2-(tetrahydro-2H-pyran-4-yl)acetyl]-5-methylpyrrolidin-2-yl}-1H-imidazol-5-yl)biphenyl-4-yl]-1H-imidazol-2-yl}-4-(methoxymethyl)pyrrolidin-1-yl]-3-methyl-1-oxobutan-2-yl}carbamate], the EC50 is below 0.1 nM in test [7] (read-out: 2a J6 (t)); 0.084 nM in test [7] (read-out: 2a J6 (t) (nM)); below 0.1 nM in test [1] (read-out: 2a JFH); 0.035 nM in test [1] (read-out: 2a JFH (nM)); 1 to 44 nM in test [2] (read-out: 3a (s)); 2.14 nM in test [2] (read-out: 3a (s) (nM)). The EC50 in test [3] (2BS, read-out: 2b (s)) is 1 to 44 nM; in test [3] (read-out: 2b (s) (nM)), 2.17 nM; in test [4] it was 74 pM; in test [5], 52 pM; in test [5] (activity range) it was below 100 pM; in test [6] (read-out: 4a (s)), below 0.1 nM. Also, the EC50 in test [6] (read-out: 4a (s) (nM)) amounted to 0.04 nM.

As for `COC[C@H]1C[C@@H](c2ncc(-c3ccc(-c4ccc(-c5cnc([C@@H]6CC[C@H](C)N6C(=O)[C@@H](NC(=O)OC)C(C)C)[nH]5)cc4)cc3)[nH]2)N(C(=O)[C@@H](NC(=O)OC)C2CCOCC2)C1` [Example AN, Methyl [(1S)-2-[(2S,4S)-2-[5-(4′-{2-[(2S,5S)-1-{(2S)-2-[(methoxycarbonyl)-amino]-3-methylbutanoyl}-5-methylpyrrolidin-2-yl]-1H-imidazol-5-yl}biphenyl-4-yl)-1H-imidazol-2-yl]-4-(methoxymethyl)pyrrolidin-1-yl]-2-oxo-1-(tetrahydro-2H-pyran-4-yl)ethyl]carbamate], the EC50 is 0.1 to 0.999 nM in test [7] (read-out: 2a J6 (t)); 0.207 nM in test [7] (read-out: 2a J6 (t) (nM)); below 0.1 nM in test [1] (read-out: 2a JFH); 0.027 nM in test [1] (read-out: 2a JFH (nM)); 1 to 44 nM in test [2] (read-out: 3a (s)); 2.19 nM in test [2] (read-out: 3a (s) (nM)). Moreover, the EC50 was 1 to 44 nM in test [3] (2BS, read-out: 2b (s)); 2.14 nM in test [3] (read-out: 2b (s) (nM)); 65 pM in test [4]; 37 pM in test [5]; below 100 pM in test [5] (activity range); below 0.1 nM in test [6] (read-out: 4a (s)). For the same molecule, the EC50 in test [6] (read-out: 4a (s) (nM)) came out at 0.035 nM.
